This experiment addresses deoxyguanosine kinase (Homo sapiens). Nature of the experiment: Inhibition of human dGK assessed as […] phosphorylation.

This note sets out measurements from BindingDB's records for doi:10.1016/j.bmc.2007.01.049 (University of Ferrara, 2007).

Where only a bound is given, the exact number is not on record here.

`CCCCCCCC(=O)O[C@H]1[C@H](O)[C@@H](CO)O[C@H]1n1cnc2c(=O)[nH]c(N)nc21` [9-(2'-O-octanoyl-beta-D-arabinofuranosyl)guanine]: the IC50 was above 500 µM.
As to `CCCCCCCC(=O)Nc1nc2c(ncn2[C@@H]2O[C@H](CO)[C@@H](O)[C@@H]2OC(=O)CCCCCCC)c(=O)[nH]1` [N2-octanoyl-9-(2'-O-octanoyl-beta-D-arabinofuranosyl)guanine], the IC50 is above 500 µM.

A word on the IC50: it is the point on the concentration scale where inhibition reaches its midpoint.
